ChEMBL document CHEMBL3596189, “Perspective: Challenges and opportunities in TB drug discovery from phenotypic screening” (Bioorg Med Chem, 2015)
Converted amounts (≈) assume the structure as drawn.

Legend:
[1] = tested on: Mycobacterium tuberculosis; assay: Antimycobacterial activity against Mycobacterium tuberculosis assessed as inhibition of bacterial growth measured in glycerol-containing medium; format: functional
[2] = Oral bioavailability in mouse; format: ADME, organism-based; conditions: in vivo
[3] = Elimination half life in mouse; format: ADME, organism-based; conditions: in vivo, read-out: beta t1/2 (converted)
[4] = Volume of distribution in mouse; format: ADME, organism-based; conditions: in vivo
[5] = Systemic clearance in mouse; format: ADME, organism-based; conditions: in vivo
[6] = tested on: Mycobacterium tuberculosis; assay: Antimycobacterial activity against Mycobacterium tuberculosis infected in mouse assessed as log reduction of lung bacterial load at 50 mg/kg administered for 4 weeks; format: functional
[7] = tested on: Mycobacterium tuberculosis; assay: Antimycobacterial activity against Mycobacterium tuberculosis infected in mouse assessed as reduction of lung bacterial load at 25 mg/kg, po; format: functional

| SMILES | MIC50 [1] [µM] | further results |
| --- | --- | --- |
| CC(=O)Nc1ccc(C)c(Nc2nccn2-c2cc(NC3CC3)ncn2)c1 | 1 (≈ 0.363 µg/mL) | – |
| Cc1nc2ccccn2c1C(=O)NCc1ccccc1 | 0.2 (≈ 0.0531 µg/mL) | – |
| Cc1ccc(C(=O)N2CCOCC2)cc1Nc1nccn1-c1cc(NC2CC2)ncn1 | 0.04 (≈ 0.0168 µg/mL) | – |
| CC1(C)CCC(NC(=O)c2cc3c(Cl)cc(Cl)cc3[nH]2)CC1 | 0.02 (≈ 0.00679 µg/mL) | bioavailability [2]: > 50%; half-life [3]: 5.1 h; Vd [4]: 4.1 L/kg; clearance [5]: 1.09 L/h/kg |
| Cc1ccc(CNC(=O)c2cnn3c2NC(c2ccccc2)CC3C(F)(F)F)cc1 (stereo unspecified) | 1.9 (≈ 0.787 µg/mL) | – |
| CC1(C)CCC(Cc2cc(O)c(-c3ccccc3)c(=O)[nH]2)CC1 | 0.03 (≈ 0.00934 µg/mL) | – |
| CC(C)Cc1cc(O)c(-c2ccccc2)c(=O)[nH]1 | 2.2 (≈ 0.535 µg/mL) | – |
| Cc1ccc2nc(C)c(C(=O)NCc3ccc(-c4ccncc4)cc3)n2c1 | 0.01 (≈ 0.00356 µg/mL) | log10cfu [6]: 1 |
| Cc1cc(C)c2cc(C(=O)NC3CCCCC3)[nH]c2c1 | 0.8 (≈ 0.216 µg/mL) | – |
| Cc1ccc([C@H]2C[C@@H](C(F)(F)F)n3ncc(C(=O)NCc4ccc(F)cc4)c3N2)cc1 | 0.2 (≈ 0.0865 µg/mL) | log10cfu [7]: 3.5 |
